Assay results as given in PMC10150366, “Discovery of an In Vivo Chemical Probe for BCL6 Inhibition by Optimization of Tricyclic Quinolinones” (Journal of Medicinal Chemistry, 2023).

Assays:
OCI-Ly3 = assay: 14-day cell proliferation assay, OCI-Ly3; assay type: cell-based; conditions: Homo sapiens, 14-day assay, BCL6-independent line
Description: DMSO final concentration.
After a short centrifugation the
(1st emission filter) / 450-80 nm (2nd emission filter). The % inhibition at each test concentration was […]
sigmoidal four-parameter logistic fit equation.
2.3 Cell proliferation assay
Aldrich) supplemented with 10% FBS (Gibco). Compounds were initially dispensed into 96-well U-bottom […]
transferred onto the cells.
Assay plates containing cells
(Beckman Coulter). The volume of medium containing 2500 cells in the control well was calculated and this volume of cells was transferred from every well of the assay plates to the corresponding well of the fresh plates containing compound. After 14 days, CellTiter Glo reagent (Promega) was added to the medium in each well of the assay plate at a ratio of 1:2, mixed on a plate shaker, then incubated at room temperature for 10 minutes. Luminescence was measured using an Envision plate reader (Perkin Elmer) and the relative luminescence at each compound concentration, compared to DMSO alone, was calculated. GI50 were determined using a 4-parameter curve fit in Dotmatics (Bishops Stortford, UK).

CHRM1 = biological target: T1, CHRM1 (Homo sapiens, UniProt P11229); assay: SAFETYscan Calcium Flux CHRM1 Antagonist; assay type: cell-based
T1 sequence (P11229 1-460): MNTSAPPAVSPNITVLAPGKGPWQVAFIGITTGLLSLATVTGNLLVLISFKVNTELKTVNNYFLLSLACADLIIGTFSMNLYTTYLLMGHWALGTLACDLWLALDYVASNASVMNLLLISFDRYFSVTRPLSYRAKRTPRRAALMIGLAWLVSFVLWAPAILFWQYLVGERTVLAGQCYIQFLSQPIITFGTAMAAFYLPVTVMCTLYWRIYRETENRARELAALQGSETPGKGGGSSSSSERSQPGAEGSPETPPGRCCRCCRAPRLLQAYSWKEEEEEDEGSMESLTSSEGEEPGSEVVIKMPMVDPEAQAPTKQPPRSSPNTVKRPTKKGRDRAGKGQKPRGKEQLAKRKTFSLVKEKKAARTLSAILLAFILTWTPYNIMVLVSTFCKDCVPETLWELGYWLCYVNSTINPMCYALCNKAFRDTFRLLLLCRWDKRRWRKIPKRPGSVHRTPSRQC
Description: (§1) Supplement jm3c00155_si_002.xlsx, sheet "SAFETYScan" | column: RC50 (uM); Max Response

CHRM2 = biological target: T2, CHRM2 (Homo sapiens, UniProt P08172); assay: SAFETYscan cAMP CHRM2 Agonist; assay type: cell-based
T2 sequence (P08172 1-466): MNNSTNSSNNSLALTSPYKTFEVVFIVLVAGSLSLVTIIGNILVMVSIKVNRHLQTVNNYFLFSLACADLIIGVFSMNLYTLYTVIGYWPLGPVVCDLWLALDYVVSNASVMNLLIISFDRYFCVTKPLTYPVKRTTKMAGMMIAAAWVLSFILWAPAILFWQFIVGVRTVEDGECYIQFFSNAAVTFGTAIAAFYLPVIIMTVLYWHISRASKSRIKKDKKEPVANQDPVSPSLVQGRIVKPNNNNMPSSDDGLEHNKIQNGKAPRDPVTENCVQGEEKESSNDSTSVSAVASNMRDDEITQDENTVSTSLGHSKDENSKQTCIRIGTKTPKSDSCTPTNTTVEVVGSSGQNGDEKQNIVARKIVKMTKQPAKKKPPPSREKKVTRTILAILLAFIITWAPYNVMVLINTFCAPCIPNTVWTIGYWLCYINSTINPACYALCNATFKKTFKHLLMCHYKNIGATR
Description: Supplement jm3c00155_si_002.xlsx, sheet "SAFETYScan" | column: RC50 (uM); Hill; Max Response

CNR1 = CNR1 (Homo sapiens, UniProt P21554); assay: SAFETYscan cAMP CNR1 Agonist; assay type: cell-based
Description: as §1

OPRM1 = OPRM1 (Homo sapiens, UniProt P35372); assay: SAFETYscan cAMP OPRM1 Agonist; assay type: cell-based
Description: as §1

nAChR(a4/b2) = nAChR(a4/b2) (Homo sapiens, UniProt P17787+P43681); assay: SAFETYscan Ion Channel nAChR(a4/b2) Opener; assay type: cell-based
Description: as §1

ROCK1 = ROCK1 (Homo sapiens, UniProt Q13464); assay: SAFETYscan Kinases Binding ROCK1 Inhibitor
Description: as §1

GR = biological target: T3, GR (Homo sapiens, UniProt P04150); assay: SAFETYscan NHR Protein Interaction GR Antagonist; assay type: cell-based
T3 sequence (P04150 1-777): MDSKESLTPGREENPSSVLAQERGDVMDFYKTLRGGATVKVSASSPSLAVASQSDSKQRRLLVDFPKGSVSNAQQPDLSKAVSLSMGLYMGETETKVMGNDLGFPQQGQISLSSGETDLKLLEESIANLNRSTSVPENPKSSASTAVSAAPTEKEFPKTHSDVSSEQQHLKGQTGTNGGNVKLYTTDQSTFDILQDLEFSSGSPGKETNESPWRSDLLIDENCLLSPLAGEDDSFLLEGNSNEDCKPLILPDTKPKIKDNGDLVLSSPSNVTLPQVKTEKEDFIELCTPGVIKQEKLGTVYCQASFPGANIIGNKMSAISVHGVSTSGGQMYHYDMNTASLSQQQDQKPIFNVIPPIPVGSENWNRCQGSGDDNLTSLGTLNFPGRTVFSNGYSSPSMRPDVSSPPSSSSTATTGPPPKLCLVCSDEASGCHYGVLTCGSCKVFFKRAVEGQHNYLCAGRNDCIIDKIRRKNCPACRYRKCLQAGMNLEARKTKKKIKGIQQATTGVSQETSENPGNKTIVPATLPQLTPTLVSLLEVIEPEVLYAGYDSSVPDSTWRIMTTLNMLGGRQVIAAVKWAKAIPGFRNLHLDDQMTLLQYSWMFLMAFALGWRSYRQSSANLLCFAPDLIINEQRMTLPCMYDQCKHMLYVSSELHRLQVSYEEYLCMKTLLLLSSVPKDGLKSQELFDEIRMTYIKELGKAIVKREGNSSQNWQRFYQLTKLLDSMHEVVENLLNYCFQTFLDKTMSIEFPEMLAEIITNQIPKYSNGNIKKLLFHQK
Description: as §1

Sequence of CNR1 (P21554 whole entry): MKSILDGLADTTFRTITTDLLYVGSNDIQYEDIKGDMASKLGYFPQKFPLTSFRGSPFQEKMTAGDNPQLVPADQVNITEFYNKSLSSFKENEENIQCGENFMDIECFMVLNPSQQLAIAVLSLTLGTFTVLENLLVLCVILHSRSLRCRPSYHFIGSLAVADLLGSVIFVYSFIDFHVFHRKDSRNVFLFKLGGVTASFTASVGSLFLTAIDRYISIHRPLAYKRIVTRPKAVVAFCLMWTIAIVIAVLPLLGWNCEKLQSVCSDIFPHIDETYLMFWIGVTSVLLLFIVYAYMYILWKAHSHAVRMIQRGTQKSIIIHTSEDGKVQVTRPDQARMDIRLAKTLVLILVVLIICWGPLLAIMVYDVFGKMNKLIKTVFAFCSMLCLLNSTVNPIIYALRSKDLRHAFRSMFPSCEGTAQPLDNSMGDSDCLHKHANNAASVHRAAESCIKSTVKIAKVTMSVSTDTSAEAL
Sequence of nAChR(a4/b2) (P43681 29-627 limits assumed): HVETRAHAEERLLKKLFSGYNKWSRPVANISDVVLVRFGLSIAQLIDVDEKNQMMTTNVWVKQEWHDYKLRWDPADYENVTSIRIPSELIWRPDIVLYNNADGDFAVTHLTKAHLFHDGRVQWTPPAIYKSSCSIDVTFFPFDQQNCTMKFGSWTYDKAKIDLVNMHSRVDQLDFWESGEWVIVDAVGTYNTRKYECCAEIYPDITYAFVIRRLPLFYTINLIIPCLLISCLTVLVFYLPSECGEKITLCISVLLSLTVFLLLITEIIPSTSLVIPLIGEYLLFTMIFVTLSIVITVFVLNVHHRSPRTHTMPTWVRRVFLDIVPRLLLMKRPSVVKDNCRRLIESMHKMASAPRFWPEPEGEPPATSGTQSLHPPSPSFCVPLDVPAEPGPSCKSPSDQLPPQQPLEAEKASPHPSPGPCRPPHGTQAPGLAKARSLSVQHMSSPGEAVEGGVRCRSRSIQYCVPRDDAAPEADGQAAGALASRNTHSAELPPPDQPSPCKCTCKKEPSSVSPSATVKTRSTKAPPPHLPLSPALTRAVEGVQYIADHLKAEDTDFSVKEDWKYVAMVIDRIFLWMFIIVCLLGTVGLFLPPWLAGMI
Sequence of nAChR(a4/b2) (P17787 26-502): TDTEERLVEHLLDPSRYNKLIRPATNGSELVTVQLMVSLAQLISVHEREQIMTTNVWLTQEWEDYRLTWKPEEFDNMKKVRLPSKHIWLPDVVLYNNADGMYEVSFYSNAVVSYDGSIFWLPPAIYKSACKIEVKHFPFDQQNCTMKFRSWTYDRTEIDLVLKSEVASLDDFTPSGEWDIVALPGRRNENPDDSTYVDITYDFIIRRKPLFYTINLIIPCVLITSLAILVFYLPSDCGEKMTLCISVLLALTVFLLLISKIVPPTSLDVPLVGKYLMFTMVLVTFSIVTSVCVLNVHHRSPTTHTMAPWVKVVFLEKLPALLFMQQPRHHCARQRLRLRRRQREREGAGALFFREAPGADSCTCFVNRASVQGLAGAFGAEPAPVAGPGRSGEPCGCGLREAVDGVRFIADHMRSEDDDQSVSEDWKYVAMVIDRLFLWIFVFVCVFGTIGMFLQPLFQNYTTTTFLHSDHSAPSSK
Sequence of ROCK1 (Q13464 whole entry): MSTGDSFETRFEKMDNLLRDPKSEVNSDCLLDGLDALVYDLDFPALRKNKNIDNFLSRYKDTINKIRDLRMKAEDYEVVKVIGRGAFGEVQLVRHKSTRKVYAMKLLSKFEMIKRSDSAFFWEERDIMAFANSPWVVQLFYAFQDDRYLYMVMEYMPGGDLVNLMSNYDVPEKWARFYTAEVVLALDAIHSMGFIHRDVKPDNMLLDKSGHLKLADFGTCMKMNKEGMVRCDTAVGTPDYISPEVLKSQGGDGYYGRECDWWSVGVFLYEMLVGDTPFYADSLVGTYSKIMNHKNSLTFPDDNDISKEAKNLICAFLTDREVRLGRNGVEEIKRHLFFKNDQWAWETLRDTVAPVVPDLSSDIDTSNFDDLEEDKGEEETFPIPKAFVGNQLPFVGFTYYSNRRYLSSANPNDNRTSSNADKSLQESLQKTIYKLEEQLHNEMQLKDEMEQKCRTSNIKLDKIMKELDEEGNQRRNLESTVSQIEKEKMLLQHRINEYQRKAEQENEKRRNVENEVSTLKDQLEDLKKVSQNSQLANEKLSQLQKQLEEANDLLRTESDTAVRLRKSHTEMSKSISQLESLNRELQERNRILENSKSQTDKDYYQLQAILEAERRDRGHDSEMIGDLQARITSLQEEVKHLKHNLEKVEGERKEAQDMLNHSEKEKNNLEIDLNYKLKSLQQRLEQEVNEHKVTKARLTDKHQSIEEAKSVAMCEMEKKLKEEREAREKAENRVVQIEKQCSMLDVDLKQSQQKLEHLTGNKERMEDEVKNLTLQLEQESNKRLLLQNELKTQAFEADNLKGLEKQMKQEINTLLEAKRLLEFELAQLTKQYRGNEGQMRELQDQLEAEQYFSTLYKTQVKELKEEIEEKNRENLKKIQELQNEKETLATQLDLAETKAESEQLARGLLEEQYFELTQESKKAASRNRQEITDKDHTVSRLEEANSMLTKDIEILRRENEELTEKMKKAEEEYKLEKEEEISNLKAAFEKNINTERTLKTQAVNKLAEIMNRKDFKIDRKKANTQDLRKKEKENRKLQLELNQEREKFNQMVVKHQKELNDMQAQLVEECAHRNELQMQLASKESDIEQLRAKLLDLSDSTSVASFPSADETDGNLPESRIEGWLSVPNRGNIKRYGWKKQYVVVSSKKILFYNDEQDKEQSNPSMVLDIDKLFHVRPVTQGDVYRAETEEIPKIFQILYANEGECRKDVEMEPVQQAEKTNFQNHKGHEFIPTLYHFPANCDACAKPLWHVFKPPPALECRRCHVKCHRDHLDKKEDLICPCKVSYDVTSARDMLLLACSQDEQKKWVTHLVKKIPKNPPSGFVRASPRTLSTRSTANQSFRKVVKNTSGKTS
Sequence of OPRM1 (P35372 whole entry): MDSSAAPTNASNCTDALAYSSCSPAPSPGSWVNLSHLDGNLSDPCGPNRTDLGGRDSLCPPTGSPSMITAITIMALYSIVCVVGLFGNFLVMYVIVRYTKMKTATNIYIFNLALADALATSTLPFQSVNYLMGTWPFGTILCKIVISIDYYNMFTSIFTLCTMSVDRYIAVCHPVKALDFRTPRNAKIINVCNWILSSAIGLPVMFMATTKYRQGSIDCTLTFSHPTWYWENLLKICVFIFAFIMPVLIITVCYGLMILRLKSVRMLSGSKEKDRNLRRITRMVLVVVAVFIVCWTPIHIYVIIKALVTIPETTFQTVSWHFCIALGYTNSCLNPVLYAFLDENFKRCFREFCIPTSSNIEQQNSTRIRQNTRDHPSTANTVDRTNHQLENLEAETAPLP

Compound: Cn1c(=O)c2c(c3cc(Nc4ccnc(F)c4Cl)ccc31)N[C@@H](C1CC1)C(F)(F)CO2 [compound 17, (S)-10-((3-chloro-2-fluoropyridin-4-yl)amino)-2-cyclopropyl-3,3-difluoro-7-methyl-1,2,3,4-tetrahydro-[1,4]oxazepino[2,3-c]quinolin-6(7H)-one]
- GI50 (OCI-Ly3): 1.85 µM
- IC50 (CHRM1): > 10 µM
- Emax (CHRM1; CHRM1, Calcium Flux, Antagonist, read-out: Max Response): 1.21%
- EC50 (CHRM2): 2.22 µM
- Hill (CHRM2; CHRM2, cAMP, Agonist): 1.63
- Emax (CHRM2; CHRM2, cAMP, Agonist, read-out: Max Response): 92.6%
- EC50 (CNR1): > 10 µM
- Emax (CNR1; CNR1, cAMP, Agonist, read-out: Max Response): 27.3%
- EC50 (OPRM1): > 10 µM
- Emax (OPRM1; OPRM1, cAMP, Agonist, read-out: Max Response): 13.3%
- EC50 (nAChR(a4/b2)): > 10 µM
- Emax (nAChR(a4/b2); nAChR(a4/b2), Ion Channel, Opener, read-out: Max Response): 3.37%
- Emax (ROCK1; read-out: Max Response): 0%
- IC50 (ROCK1; read-out: RC50 (IC50)): > 10 µM
- Emax (GR; read-out: Max Response): 12.3%
- IC50 (GR; read-out: RC50 (IC50)): > 10 µM
